Data published in paper PMC3701698, “Pathway-based Screening Strategy for Multitarget Inhibitors of Diverse Proteins in Metabolic Pathways” (PLoS Computational Biology, 2013).
Like-named read-outs stand apart in the source and are kept apart here.

Experiments:
[1] = molecular target: T1, shikimate dehydrogenase (SDH) (Helicobacter pylori, UniProt P56119); experiment: Single enzyme inhibition assay, SDH activity (formation of NADPH, A340); type: biochemical; conditions: for IC50: 1.6 mM shikimate, 2 mM NADP, 25°C, pH 8.0
T1 sequence (P56119 1-263): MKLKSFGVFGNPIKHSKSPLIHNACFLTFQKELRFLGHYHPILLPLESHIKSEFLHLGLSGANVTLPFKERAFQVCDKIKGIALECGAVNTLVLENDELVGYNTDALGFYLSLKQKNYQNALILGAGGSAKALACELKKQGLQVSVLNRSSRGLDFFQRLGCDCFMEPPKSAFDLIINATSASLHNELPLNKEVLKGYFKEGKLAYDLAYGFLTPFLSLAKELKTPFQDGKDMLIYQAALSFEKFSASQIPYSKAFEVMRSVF
Experimental: (§1) The SK activity was measured by coupling the release of ADP from the SK-catalyzed reaction to the oxidation of NADH using pyruvate kinase (EC 2.7.1.40) and lactate dehydrogenase (EC 1.1.1.27) as coupling enzymes. SDH activity was determined by monitoring the formation of NADPH. The initial rate of the reaction was measured by the increase in absorbance at A340 (ε = 6,200 M^−1 cm^−1) in the present of shikimate. The assay was performed at 25°C in a mixture of 100 mM Tris-HCl buffer, pH 8.0.
(§2) Both SK and SDH were used in a final enzyme concentration of 100 nM. For determination of IC50 for each inhibitor, the assay was initiated by the addition of shikimate (1.6 mM) after incubation in a buffer containing cofactor (2 mM ATP for SK or 2 mM NADP for SDH), enzyme, and inhibitor (dissolved in 5% dimethyl sulfoxide). All assays were conducted in a 96-well microplate and analyzed with a spectrophotometer (FLUOstar OPTIMA, BMG LABTECH). A dose-response curve was fitted using the non-linear regression function of GraphPad Prism®.

shikimate kinase (SK) = shikimate kinase (SK) (Helicobacter pylori, UniProt P56073); experiment: Single enzyme inhibition assay, SK activity (ADP release coupled to NADH oxidation); type: biochemical; conditions: for IC50: 1.6 mM shikimate, 2 mM ATP, 25°C, pH 8.0; for inhibition at 100 µM: Table S4, read-out: SK IC50 (μM), dash = inhibition percentage
Sequence of shikimate kinase (SK) (P56073 whole entry): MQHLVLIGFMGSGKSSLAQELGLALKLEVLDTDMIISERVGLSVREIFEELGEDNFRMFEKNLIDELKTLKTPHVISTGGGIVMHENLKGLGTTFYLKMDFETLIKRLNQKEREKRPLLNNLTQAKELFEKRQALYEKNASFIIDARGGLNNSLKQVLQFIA
Experimental: as §1, §2

[2] = molecular target: T2, 3-dehydroquinate synthase (Helicobacter pylori, UniProt P56081); experiment: 3-dehydroquinate synthase inhibition assay (NADH quantification); type: biochemical; conditions: for inhibition of 3-dehydroquinate synthase: 1 mM DAHP, 0.5 mM NAD+
T2 sequence (P56081 1-343): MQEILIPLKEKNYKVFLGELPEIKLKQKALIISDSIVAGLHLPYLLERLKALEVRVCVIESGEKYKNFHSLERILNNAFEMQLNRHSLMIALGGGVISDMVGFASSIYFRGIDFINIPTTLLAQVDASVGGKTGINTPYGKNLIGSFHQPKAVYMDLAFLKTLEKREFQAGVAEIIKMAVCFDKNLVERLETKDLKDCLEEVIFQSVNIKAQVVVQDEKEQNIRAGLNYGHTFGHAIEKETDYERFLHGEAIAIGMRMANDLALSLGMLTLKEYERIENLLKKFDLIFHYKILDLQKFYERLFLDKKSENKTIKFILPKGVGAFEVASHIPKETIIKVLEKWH
Experimental: (§3) We performed ADP assay providing a direct method to analyze SDH-SK dual enzyme activity. The assay was initiated by addition of the 3-dehydroshikimate (2 mM) after incubating in a reaction mixture containing 2.5 mM ATP, 0.5 mM NADPH, 100 nM SDH, 100 nM SK enzyme, 50 mM KCl, 5 mM MgCl2 and different inhibitors. The reaction was carried out at 25°C in a mixture of 100 mM Tris-HCl buffer, pH 7.5 and terminated at 100°C for 5 mins in the reaction time of initial rate. The amount of ADP was measured by using ADP Colorimetric Assay Kit II (BioVision) according to the manufacturer's instruction. We also performed 3-dehydroquinate synthase inhibition assay. The reaction was comprised of 3-deoxy-D-arabinoheptulosonate 7-phosphate (1 mM) and NAD+ (0.5 mM). The amount of NADH was measured by using NAD+/NADH Quantification Kit (BioVision). All assays were conducted in a 96-well microplate and analyzed with a spectrophotometer (FLUOstar OPTIMA, BMG LABTECH). The dose-response curve was fitted using the non-linear regression function of GraphPad Prism. The IC90 values were computed from the IC50 and Hill slop.

dual enzyme (SDH and SK) = experiment: SDH-SK dual enzyme activity ADP assay; type: biochemical, Helicobacter pylori; conditions: for dual enzyme dose-response curve compared with SDH and SK curves: 2 mM 3-dehydroshikimate, 100 nM SDH, 100 nM SK; for dual enzyme (SDH and SK) activity curve: at inhibitor concentrations greater than the IC90 value
Experimental: as §3

[3] = 100 nM enzyme, read-out: SDH IC50
[4] = 100 nM enzyme, read-out: SK IC50

Row | Compound | IC50 [1, 3] | IC50 (shikimate kinase (SK); [4]) | inhibition at 100 µM (shikimate kinase (SK)) | dual enzyme dose-response curve compared with SDH and SK curves (dual enzyme (SDH and SK)) | inhibition of 3-dehydroquinate synthase [2] | dual enzyme (SDH and SK) activity curve (dual enzyme (SDH and SK)) | also measured
1 | O=C(Nc1ccc2c(O)cc(S(=O)(=O)O)cc2c1)Nc1ccc2c(O)cc(S(=O)(=O)O)cc2c1 [NSC45174] | – | – | – | median effect | – | approximately 0 | IC50 [2]: 7.1 µM; IC50 ([1]; SDH IC50, 100 nM enzyme): 3.6 µM; IC50 (shikimate kinase (SK); SK IC50, 100 nM enzyme): < 10 µM
2 | Cc1cc(/N=N/c2ccc(/N=N/c3ccc(/N=N/c4ccc(O)c(C(=O)O)c4)cc3)c(S(=O)(=O)O)c2C)c(N)cc1N [NSC45611] | 1.4 µM | 4.8 µM | – | median effect | no inhibitions | approximately 0 | –
3 | Nc1ccc2c(O)c(N=Nc3ccc4c(O)cc(S(=O)(=O)O)cc4c3)c(S(=O)(=O)O)cc2c1 [NSC162535, reference compound] | – | – | – | nearly identical profiles | – | – | –

Now from value to compound, other results behind:

Row | IC50 [1, 3] | IC50 (shikimate kinase (SK); [4]) | inhibition at 100 µM (shikimate kinase (SK)) | dual enzyme dose-response curve compared with SDH and SK curves (dual enzyme (SDH and SK)) | inhibition of 3-dehydroquinate synthase [2] | Compound | dual enzyme (SDH and SK) activity curve (dual enzyme (SDH and SK)) | also measured
4 | 4.9 µM | > 100 µM | < 50% | – | – | Cc1ccc(S(=O)(=O)CCSc2n[nH]c(=O)n2-c2ccc(OCc3ccccc3)cc2)cc1 [HTS02873] | – | inhibitory effect for SK (shikimate kinase (SK); at 100 µM): no inhibitory effect
5 | – | – | < 50% | – | – | O=C(Nc1ccc2ncccc2c1)Nc1ccc2ncccc2c1 [NSC71881] | – | inhibition at 100 µM ([1]; at 100 μM, Table S4, read-out: SDH IC50 (μM), dash = inhibition percentage): < 50%
6 | 24.8 µM | – | – | – | no inhibitions | O=C(NNC(=O)C1c2ccccc2Oc2ccccc21)c1cccc([N+](=O)[O-])c1 [RH00037] | – | –
